Measurements reported in US20250340557A1, “PYRIMIDINE DERIVATIVE” (ASKA PHARMACEUTICAL CO., LTD., priority 2022, published 2025).

Each compound was assayed against T1, human mPGES-1 (Homo sapiens, UniProt O14684) (assay: Test for mPGES-1 inhibitory activity (microsomal enzyme, PGE2 EIA)). Conditions: microsomes from COS-1 cells transfected with human mPGES-1 cDNA; substrate PGH2 1 μM; 4° C., 4 minutes; PGE2 measured by EIA; read-out: h mPGES1 IC50.
T1 construct: made in house; host or cells: COS-1 cells (transient transfection; microsomal fraction used as enzyme)
T1 sequence (O14684 1-152): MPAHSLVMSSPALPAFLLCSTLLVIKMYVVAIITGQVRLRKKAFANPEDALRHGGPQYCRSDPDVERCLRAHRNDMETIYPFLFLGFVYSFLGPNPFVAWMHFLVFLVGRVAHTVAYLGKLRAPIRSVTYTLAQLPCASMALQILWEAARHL
Assay type: biochemical
Procedure, shortened: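 IC50 values were derived from EIA-quantified PGE2 after a 4 min, 4 °C reaction with PGH2 at 1 μM final, stopped with ferric chloride/citric acid. Beforehand, compound (2% DMSO final) sat 15 min at 4 °C with human mPGES-1 microsomes from transiently transfected COS-1 cells. Buffer was sodium phosphate pH 7.2 containing 2.5 mM reduced glutathione and 1 mM EDTA.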

| Compound | IC50 |
| --- | --- |
| Cc1cc(N2CCC(C(=O)NCc3ccc(C(F)(F)F)c(-c4nc(C(F)(F)F)cc(=O)[nH]4)c3F)CC2)ccc1F [Example 60, N-{2-fluoro-3-[6-oxo-4-(trifluoromethyl)-1,6-dihydropyrimidin-2-yl]-4-(trifluoromethyl)benzyl}-1-(4-fluoro-3-methylphenyl)piperidine-4-carboxamide] | < 1 nM |
| CCc1nc(-c2c(C(F)(F)F)ccc(CNC(=O)[C@H]3CC[C@H](OCc4ccc(Cl)cc4)CC3)c2F)[nH]c(=O)c1F [Example 125, trans-4-[(4-chlorobenzyl)oxy]-N-[3-(4-ethyl-5-fluoro-6-oxo-1,6-dihydropyrimidin-2-yl)-2-fluoro-4-(trifluoromethyl)benzyl]cyclohexane-1-carboxamide] | 19 nM |
| O=C(NCc1ccc(C(F)(F)F)c(-c2nc(C(F)(F)F)cc(=O)[nH]2)c1F)C1(F)CCN(c2ccc(C(F)(F)F)cn2)CC1 [Example 38, 4-fluoro-N-{2-fluoro-3-[6-oxo-4-(trifluoromethyl)-1,6-dihydropyrimidin-2-yl]-4-(trifluoromethyl)benzyl}-1-[5-(trifluoromethyl)pyridin-2-yl]piperidine-4-carboxamide] | 7.8 nM |
| Cc1ccc(N2CCC(C(=O)NCc3ccc(C(F)(F)F)c(-c4nc(C(F)(F)F)cc(=O)[nH]4)c3F)CC2)cc1 [Example 61, N-{2-fluoro-3-[6-oxo-4-(trifluoromethyl)-1,6-dihydropyrimidin-2-yl]-4-(trifluoromethyl)benzyl}-1-(4-methylphenyl)piperidine-4-carboxamide] | 0.87 nM |
| Cc1nc(-c2c(C(F)(F)F)ccc(CNC(=O)C3CCN(c4ccc(C(F)(F)F)cn4)CC3)c2F)[nH]c(=O)c1C [Example 35, N-[3-(4,5-dimethyl-6-oxo-1,6-dihydropyrimidin-2-yl)-2-fluoro-4-(trifluoromethyl)benzyl]-1-[5-(trifluoromethyl)pyridin-2-yl]piperidine-4-carboxamide] | 11 nM |
| CCc1cc(=O)[nH]c(-c2c(C(F)(F)F)ccc(CNC(=O)C3CCN(c4cccc(C)n4)CC3)c2F)n1 [Example 24, N-[3-(4-ethyl-6-oxo-1,6-dihydropyrimidin-2-yl)-2-fluoro-4-(trifluoromethyl)benzyl]-1-(6-methylpyridin-2-yl)piperidine-4-carboxamide] | 76 nM |
| O=c1cc(C(F)(F)F)nc(-c2c(C(F)(F)F)ccc(CNC(=O)[C@H]3CC[C@H](OCc4ccccc4Cl)CC3)c2F)[nH]1 [Example 99, trans-4-[(2-chlorobenzyl)oxy]-N-{2-fluoro-3-[6-oxo-4-(trifluoromethyl)-1,6-dihydropyrimidin-2-yl]-4-(trifluoromethyl)benzyl}cyclohexane-1-carboxamide] | < 1 nM |
| CCc1cc(=O)[nH]c(-c2c(C(F)(F)F)ccc(CNC(=O)C3CCN(c4ccc5cccc(C)c5n4)CC3)c2F)n1 [Example 10, N-[3-(4-ethyl-6-oxo-1,6-dihydropyrimidin-2-yl)-2-fluoro-4-(trifluoromethyl)benzyl]-1-(8-methylquinolin-2-yl)piperidine-4-carboxamide] | < 1 nM |
| Cc1cc(=O)[nH]c(-c2c(C(F)(F)F)ccc(CNC(=O)[C@H]3CC[C@H](OCc4ccc(Cl)cc4F)CC3)c2F)n1 [Example 121, trans-4-[(4-chloro-2-fluorobenzyl)oxy]-N-[2-fluoro-3-(4-methyl-6-oxo-1,6-dihydropyrimidin-2-yl)-4-(trifluoromethyl)benzyl]cyclohexane-1-carboxamide] | < 1 nM |
| O=C(NCc1ccc(C(F)(F)F)c(-c2nc(C(F)(F)F)cc(=O)[nH]2)c1F)C1CCN(c2ccc(Cl)c(Cl)c2)CC1 [Example 66, 1-(3,4-dichlorophenyl)-N-{2-fluoro-3-[6-oxo-4-(trifluoromethyl)-1,6-dihydropyrimidin-2-yl]-4-(trifluoromethyl)benzyl}piperidine-4-carboxamide] | < 1 nM |
| Cc1cc(=O)[nH]c(-c2c(C(F)(F)F)ccc(CNC(=O)C3CCN(c4ccc(OC(F)(F)F)cn4)CC3)c2F)n1 [Example 53, N-[2-fluoro-3-(4-methyl-6-oxo-1,6-dihydropyrimidin-2-yl)-4-(trifluoromethyl)benzyl]-1-[5-(trifluoromethoxy)pyridin-2-yl]piperidine-4-carboxamide] | 49 nM |
| O=C(NCc1ccc(C(F)(F)F)c(-c2nc(C(F)(F)F)cc(=O)[nH]2)c1F)C1CCN(c2ccc(Cl)cn2)CC1 [Example 27, 1-(5-chloropyridin-2-yl)-N-{2-fluoro-3-[6-oxo-4-(trifluoromethyl)-1,6-dihydropyrimidin-2-yl]-4-(trifluoromethyl)benzyl}piperidine-4-carboxamide] | < 1 nM |
| O=c1cc(C(F)(F)F)nc(-c2c(C(F)(F)F)ccc(CNC(=O)[C@H]3C[C@H](OCc4cccc(C(F)(F)F)c4)C3)c2F)[nH]1 [Example 144, trans-N-{2-fluoro-3-[6-oxo-4-(trifluoromethyl)-1,6-dihydropyrimidin-2-yl]-4-(trifluoromethyl)benzyl}-3-{[3-(trifluoromethyl)benzyl]oxy}cyclobutane-1-carboxamide] | < 1 nM |
| Cc1cccc2ccc(N3CCC(C(=O)NCc4ccc(C(F)(F)F)c(-c5nc(C(F)F)cc(=O)[nH]5)c4F)CC3)nc12 [Example 12, N-{3-[4-(difluoromethyl)-6-oxo-1,6-dihydropyrimidin-2-yl]-2-fluoro-4-(trifluoromethyl)benzyl}-1-(8-methylquinolin-2-yl)piperidine-4-carboxamide] | 2.1 nM |
| Cc1cc(=O)[nH]c(-c2c(C(F)(F)F)ccc(CNC(=O)C3CCN(c4ccc(C(F)(F)F)cn4)CC3)c2F)n1 [Example 34, N-[2-fluoro-3-(4-methyl-6-oxo-1,6-dihydropyrimidin-2-yl)-4-(trifluoromethyl)benzyl]-1-[5-(trifluoromethyl)pyridin-2-yl]piperidine-4-carboxamide] | < 1 nM |

Same assay, conditions: microsomes of COS-1 cells transfected with human mPGES-1 cDNA; PGH2 1 μM; 4° C., 4 minutes; PGE2 by EIA; read-out: h mPGES1 IC50

| Compound | IC50 |
| --- | --- |
| CCc1nc(-c2c(C(F)(F)F)ccc(CNC(=O)[C@H]3C[C@H](OCc4cc(F)cc(Cl)c4)C3)c2F)[nH]c(=O)c1F [Example 245, trans-3-[(3-chloro-5-fluorobenzyl)oxy]-N-[3-(4-ethyl-5-fluoro-6-oxo-1,6-dihydropyrimidin-2-yl)-2-fluoro-4-(trifluoromethyl)benzyl]cyclobutane-1-carboxamide] | < 1 nM |
| CCc1cc(=O)[nH]c(-c2c(C(F)(F)F)ccc(CNC(=O)[C@H]3C[C@H](OCc4cc(F)cc(Cl)c4)C3)c2F)n1 [Example 211, trans-3-[(3-chloro-5-fluorobenzyl)oxy]-N-[3-(4-ethyl-6-oxo-1,6-dihydropyrimidin-2-yl)-2-fluoro-4-(trifluoromethyl)benzyl]cyclobutane-1-carboxamide] | 9.3 nM |
| CCc1cc(=O)[nH]c(-c2c(C(F)(F)F)ccc(CNC(=O)[C@H]3C[C@H](OCc4ccccc4C(F)(F)F)C3)c2F)n1 [Example 198, trans-N-[3-(4-ethyl-6-oxo-1,6-dihydropyrimidin-2-yl)-2-fluoro-4-(trifluoromethyl)benzyl]-3-{[2-(trifluoromethyl)benzyl]oxy}cyclobutane-1-carboxamide] | 1.4 nM |
| CCc1nc(-c2c(C(F)(F)F)ccc(CNC(=O)[C@H]3C[C@H](OCc4cc(F)cc(F)c4)C3)c2F)[nH]c(=O)c1F [Example 238, trans-3-[(3,5-difluorobenzyl)oxy]-N-[3-(4-ethyl-5-fluoro-6-oxo-1,6-dihydropyrimidin-2-yl)-2-fluoro-4-(trifluoromethyl)benzyl]cyclobutane-1-carboxamide] | < 1 nM |
| Cc1cc(=O)[nH]c(-c2c(C(F)(F)F)ccc(CNC(=O)[C@H]3C[C@H](OCc4cccc(C(F)(F)F)c4)C3)c2F)n1 [Example 182, trans-N-[2-fluoro-3-(4-methyl-6-oxo-1,6-dihydropyrimidin-2-yl)-4-(trifluoromethyl)benzyl]-3-{[3-(trifluoromethyl)benzyl]oxy}cyclobutane-1-carboxamide] | 12 nM |
| O=c1cc(C(F)(F)F)nc(-c2c(C(F)(F)F)ccc(CNC(=O)[C@H]3C[C@@H](OCc4ccc(F)c(Cl)c4)C3)c2F)[nH]1 [Example 158, cis-3-[(3-chloro-4-fluorobenzyl)oxy]-N-{2-fluoro-3-[6-oxo-4-(trifluoromethyl)-1,6-dihydropyrimidin-2-yl]-4-(trifluoromethyl)benzyl}cyclobutane-1-carboxamide] | < 1 nM |
| CCc1nc(-c2c(C(F)(F)F)ccc(CNC(=O)[C@H]3C[C@H](OCc4ccc(F)cc4Cl)C3)c2F)[nH]c(=O)c1F [Example 241, trans-3-[(2-chloro-4-fluorobenzyl)oxy]-N-[3-(4-ethyl-5-fluoro-6-oxo-1,6-dihydropyrimidin-2-yl)-2-fluoro-4-(trifluoromethyl)benzyl]cyclobutane-1-carboxamide] | < 1 nM |
| O=c1cc(C(F)(F)F)nc(-c2c(C(F)(F)F)ccc(CNC(=O)[C@H]3C[C@H](Oc4ccc(Cl)cc4)C3)c2F)[nH]1 [Example 255, trans-3-(4-chlorophenoxy)-N-{2-fluoro-3-[6-oxo-4-(trifluoromethyl)-1,6-dihydropyrimidin-2-yl]-4-(trifluoromethyl)benzyl}cyclobutane-1-carboxamide] | 2.8 nM |
| Cc1nc(-c2c(C(F)(F)F)ccc(CNC(=O)[C@H]3C[C@H](OCc4cccc(F)c4F)C3)c2F)[nH]c(=O)c1F [Example 223, trans-3-[(2,3-difluorobenzyl)oxy]-N-[2-fluoro-3-(5-fluoro-4-methyl-6-oxo-1,6-dihydropyrimidin-2-yl)-4-(trifluoromethyl)benzyl]cyclobutane-1-carboxamide] | < 1 nM |
